Measurements taken from patent publication US10131664B2 (Celgene Quanticel Research, Inc., priority 2013, dated 2018).
Where a name gives a salt, the structure may show the parent alone.

Key:
full-length human LSD1 = full-length human LSD1 (Homo sapiens (Human), UniProt O60341); test: In vitro enzyme inhibition assay LSD-1 (TR-FRET); format: biochemical; details: TR-FRET, 0.1 nM LSD1, 50 nM H3K4me1-biotin peptide, 2 μM FAD, pH7.3; read-out: LSD1 IC50
Experimental: This assay determines the ability of a test compound to inhibit LSD1 demethylase activity.
The enzymatic assay of LSD1 activity is based on Time Resolved-Fluorescence Resonance Energy Transfer (TR-FRET) detection.
The ability of the compounds disclosed herein to inhibit LSD1 activity was quantified and the respective IC50 value was determined. Table 5 provides the IC50 values of various substituted heterocyclic compounds disclosed herein.

THP-1 (AML) cells = test: LSD1 CD11b cellular assay (flow cytometry); format: cell-based; details: Homo sapiens, 96 h; CD11b expression in THP-1 (AML) cells, flow cytometry, 4 days incubation; read-out: Cellular IC50
Experimental: To analyze LSD1 inhibitor efficacy in cells, a CD11b flow cytometry assay was performed. LSD1 inhibition induces CD11b expression in THP-1 (AML) cells which can be measured by flow cytometry. […] LSD1 test compounds were serially diluted in DMSO. The dilutions were added to each well accordingly to a final concentration of 0.2% DMSO. The cells were incubated at 37° C. in 5% CO2 for 4 days. 250 μL of each well was transferred to a well in a 96 well round bottom plate. The plate was centrifuged at 1200 rpm at 4 degrees Celsius in a Beckman Coulter Alegra 6KR centrifuge for 5 min. The media was removed leaving the cells at the bottom of the wells. The cells were washed in 100 μL cold HBSS (Hank's Balanced Salt Solution) plus 2% BSA (Bovine Serum Albumin) solution and centrifuged at 1200 rpm at 4° C. for 5 min. The wash was removed. […] The cells were centrifuged and washed two times in 100 μl HBSS plus 2% BSA. After the final spin the cells were resuspended in 100 μL HBSS plus 2% BSA containing 1 μg/mL DAPI (4′,6-diamidino-2-phenylindole). The cells were then analyzed by flow cytometry in a BD FACSAria machine. Cells were analyzed for CD11b expression. The percent of CD11b expressing cells for each inhibitor concentration was used to determine an IC50 curve for each compound analyzed.

CCNc1nc(N2CCC(N)CC2)nc(-c2ccc(C#N)c(F)c2)c1-c1ccc2nn(C)cc2c1 [Example 166, 4-[2-(4-aminopiperidin-1-yl)-6-(ethylamino)-5-(2-methyl-2H-indazol-5-yl)-pyrimidin-4-yl]-2-fluorobenzonitrile]
IC50 (full-length human LSD1): < 100 nM
IC50 (THP-1 (AML) cells): < 100 nM

Cn1cnc2cc(-c3cnc(N4CCC(N)CC4)nc3-c3ccc(C#N)cc3)c(F)c(F)c21 [Example 126, 4-[2-(4-aminopiperidin-1-yl)-5-(6,7-difluoro-1-methylbenzimidazol-5-yl)pyrimidin-4-yl]benzonitrile]
IC50 (full-length human LSD1): < 100 nM
IC50 (THP-1 (AML) cells): < 100 nM

Cn1nnc2cc(-c3cnc(N4CCC(N)CC4)nc3-c3ccc(C#N)c(F)c3)ccc21 [Example 96, 4-[2-(4-aminopiperidin-1-yl)-5-(1-methylbenzotriazol-5-yl)pyrimidin-4-yl]-2-fluorobenzonitrile]
IC50 (full-length human LSD1): < 100 nM
IC50 (THP-1 (AML) cells): < 100 nM

Cc1ccc(-c2cc(NC[C@@H]3CCNC3)nn2-c2ccc(C#N)cc2)cc1 [Example 45, 4-[5-(4-methylphenyl)-3-[[(3R)-pyrrolidin-3-yl]methylamino]pyrazol-1-yl]benzonitrile]
IC50 (full-length human LSD1): < 100 nM
IC50 (THP-1 (AML) cells): 100 to 1000 nM

Cc1ccc(-c2nc3cnn(C[C@H]4[C@@H]5CNC[C@@H]54)c3cc2-c2ccc(C#N)cc2)cc1 [Example 15, 4-[1-[[(1S,5R)-3-azabicyclo[3.1.0]hexan-6-yl]methyl]-5-(4-methylphenyl)pyrazolo[4,3-b]pyridin-6-yl]benzonitrile]
IC50 (full-length human LSD1): < 100 nM
IC50 (THP-1 (AML) cells): < 100 nM

Cn1ncc2cc(-c3cnc(N4CCC(N)CC4)nc3-c3ccc(C#N)c(F)c3)cnc21 [Example 145, 4-[2-(4-aminopiperidin-1-yl)-5-(1-methylpyrazolo[3,4-b]pyridin-5-yl)pyrimidin-4-yl]-2-fluorobenzonitrile]
IC50 (full-length human LSD1): < 100 nM
IC50 (THP-1 (AML) cells): < 100 nM

CN(C)c1ncc(-c2cnc(N3CCC(N)CC3)nc2-c2ccc(C#N)c(F)c2)cn1 [Example 134, 4-[2-(4-aminopiperidin-1-yl)-5-[2-(dimethylamino)pyrimidin-5-yl]pyrimidin-4-yl]-2-fluorobenzonitrile]
IC50 (full-length human LSD1): < 100 nM
IC50 (THP-1 (AML) cells): < 100 nM

N#Cc1ccc(-c2nc(N3CCC(N)CC3)ncc2-c2ccc3c(c2)ncn3C(F)F)cc1 [Example 79, 4-[2-(4-aminopiperidin-1-yl)-5-[1-(difluoromethyl)benzimidazol-5-yl]pyrimidin-4-yl]benzonitrile]
IC50 (full-length human LSD1): < 100 nM
IC50 (THP-1 (AML) cells): < 100 nM

CNc1nc(N2CC[C@H](N)[C@H](F)C2)nc(-c2ccc(C#N)cc2)c1-c1ccc2nn(C)cc2c1 [Example 178, 4-{2-[(3R,4S)-4-amino-3-fluoropiperidin-1-yl]-5-(2-methyl-2H-indazol-5-yl)-6-(methylamino)pyrimidin-4-yl}benzonitrile]
IC50 (full-length human LSD1): < 100 nM
IC50 (THP-1 (AML) cells): < 100 nM

Cn1ncc2cc(-c3cnc(N4CCC(N)CC4)nc3-c3ccc(C#N)cc3)ncc21 [Example 69, 4-[2-(4-aminopiperidin-1-yl)-5-(1-methylpyrazolo[3,4-c]pyridin-5-yl)pyrimidin-4-yl]benzonitrile]
IC50 (full-length human LSD1): < 100 nM
IC50 (THP-1 (AML) cells): 100 to 1000 nM

COc1nc(N2CCC(N)CC2)nc(-c2ccc(C#N)cc2)c1-c1ccc2c(c1)nnn2C [Example 154, 4-[2-(4-aminopiperidin-1-yl)-6-methoxy-5-(1-methyl-1H-1,2,3-benzotriazol-5-yl)pyrimidin-4-yl]benzonitrile]
IC50 (full-length human LSD1): < 100 nM
IC50 (THP-1 (AML) cells): < 100 nM

N#Cc1ccc(-c2cc3c(ccn3C[C@H]3CCNC3)nc2N2CCOCC2)cc1 [Example 7, 4-[5-morpholin-4-yl-1-[[(3S)-pyrrolidin-3-yl]methyl]pyrrolo[3,2-b]pyridin-6-yl]benzonitrile]
IC50 (full-length human LSD1): < 100 nM
IC50 (THP-1 (AML) cells): 100 to 1000 nM

N#Cc1ccc(-c2nc(N3CCC(N)CC3)ncc2-c2cnc(N3CCCC3)nc2)cc1F [Example 135, 4-[2-(4-aminopiperidin-1-yl)-5-(2-pyrrolidin-1-ylpyrimidin-5-yl)pyrimidin-4-yl]-2-fluorobenzonitrile]
IC50 (full-length human LSD1): < 100 nM
IC50 (THP-1 (AML) cells): < 100 nM

CNC1CCN(c2ncc(-c3cnn(CC(F)(F)F)c3)c(-c3ccc(C#N)c(F)c3)n2)CC1 [Example 89, 2-fluoro-4-[2-[4-(methylamino)piperidin-1-yl]-5-[1-(2,2,2-trifluoroethyl)pyrazol-4-yl]pyrimidin-4-yl]benzonitrile]
IC50 (full-length human LSD1): < 100 nM
IC50 (THP-1 (AML) cells): < 100 nM

CNc1nc(N2CCC(N(C)C)CC2)nc(-c2ccc(C#N)cc2)c1-c1ccc2nn(C)cc2c1 [Example 173, 4-{2-[4-(dimethylamino)piperidin-1-yl]-5-(2-methyl-2H-indazol-5-yl)-6-(methylamino)pyrimidin-4-yl}benzonitrile]
IC50 (full-length human LSD1): < 100 nM
IC50 (THP-1 (AML) cells): < 100 nM

Cc1ccc(-c2cnc(NC[C@H]3CCNC3)nc2-c2ccc(C#N)cc2)cc1 [Example 16, 4-[5-(4-methylphenyl)-2-{[(3S)-pyrrolidin-3-ylmethyl]amino}pyrimidin-4-yl]benzonitrile]
IC50 (full-length human LSD1): < 100 nM
IC50 (THP-1 (AML) cells): < 100 nM

Cn1cnc2cc(-c3cnc(N4CCC(N)CC4)nc3-c3ccc(C#N)cc3)cnc21 [Example 66, 4-[2-(4-aminopiperidin-1-yl)-5-(3-methylimidazo[4,5-b]pyridin-6-yl)pyrimidin-4-yl]benzonitrile]
IC50 (full-length human LSD1): < 100 nM
IC50 (THP-1 (AML) cells): < 100 nM

Cn1cnc2cc(-c3cnc(N4CCC(N)CC4)nc3-c3ccc(C#N)cc3)ccc21 [Example 122, 4-[2-(4-aminopiperidin-1-yl)-5-(1-methylbenzimidazol-5-yl)pyrimidin-4-yl]benzonitrile]
IC50 (full-length human LSD1): < 100 nM
IC50 (THP-1 (AML) cells): < 100 nM

Cn1nnc2cc(-c3cnc(N4CCC(N)CC4)nc3-c3ccc(C#N)c(F)c3)cnc21 [Example 139, 4-[2-(4-aminopiperidin-1-yl)-5-(3-methyltriazolo[4,5-b]pyridin-6-yl)pyrimidin-4-yl]-2-fluorobenzonitrile]
IC50 (full-length human LSD1): < 100 nM
IC50 (THP-1 (AML) cells): < 100 nM

Cc1ccc(-c2nc3ccn(C[C@@H]4CCNC4)c3cc2-c2ccc(C#N)cc2)cc1 [Example 1, 4-[5-(4-methylphenyl)-1-[[(3R)-pyrrolidin-3-yl]methyl]pyrrolo[3,2-b]pyridin-6-yl]benzonitrile]
IC50 (full-length human LSD1): < 100 nM
IC50 (THP-1 (AML) cells): < 100 nM

N#Cc1ccc(-n2nc(C(=O)N3CCC[C@@H](N)C3)cc2OCc2ccncc2)cc1 [Example 58, 4-{3-[((3R)-3-aminopiperidyl)carbonyl]-5-(4-pyridylmethoxy)pyrazolyl}benzenecarbonitrile]
IC50 (full-length human LSD1): < 100 nM
IC50 (THP-1 (AML) cells): 1000 to 10000 nM

COc1ccc(-c2nc3ccn(C[C@@H]4CCNC4)c3cc2-c2ccc(C#N)cc2)cc1 [Example 49, 4-{1-[((3R)pyrrolidin-3-yl)methyl]-5-(4-methoxyphenyl)pyrrolo[3,2-b]pyridin-6-yl}benzenecarbonitrile, HCl salt]
IC50 (full-length human LSD1): < 100 nM
IC50 (THP-1 (AML) cells): < 100 nM

N#Cc1ccc(-c2nc(N3CCC(N)CC3)ncc2-c2cnn(CC(F)(F)F)c2)cc1 [Example 61, 4-[2-(4-aminopiperidin-1-yl)-5-[1-(2,2,2-trifluoroethyl)pyrazol-4-yl]pyrimidin-4-yl]benzonitrile]
IC50 (full-length human LSD1): < 100 nM
IC50 (THP-1 (AML) cells): < 100 nM

CNc1nc(N2CCCNCC2)nc(-c2ccc(C#N)c(F)c2)c1-c1ccc2nn(C)cc2c1 [Example 162, 4-[2-(1,4-diazepan-1-yl)-5-(2-methyl-2H-indazol-5-yl)-6-(methylamino)pyrimidin-4-yl]-2-fluorobenzonitrile]
IC50 (full-length human LSD1): < 100 nM
IC50 (THP-1 (AML) cells): < 100 nM

COc1nc(N2CCC(N)CC2)nc(-c2ccc(C#N)c(F)c2)c1-c1cnc2c(cnn2C)c1 [Example 159, 4-[2-(4-aminopiperidin-1-yl)-6-methoxy-5-{1-methyl-1H-pyrazolo[3,4-b]pyridin-5-yl}pyrimidin-4-yl]-2-fluorobenzonitrile]
IC50 (full-length human LSD1): < 100 nM
IC50 (THP-1 (AML) cells): < 100 nM

Cn1cc2cc(-c3cnc(N4CC5C(N)C5C4)nc3-c3ccc(C#N)c(F)c3)ccc2n1 (centres unmarked) [Example 144, 4-[2-(6-amino-3-azabicyclo[3.1.0]hexan-3-yl)-5-(2-methylindazol-5-yl)pyrimidin-4-yl]-2-fluorobenzonitrile]
IC50 (full-length human LSD1): < 100 nM
IC50 (THP-1 (AML) cells): 100 to 1000 nM

Cn1cc2cc(-c3cnc(N4CCCC(N)C4)nc3-c3ccc(C#N)c(F)c3)ccc2n1 (centres unmarked) [Example 108, 4-[2-(3-aminopiperidin-1-yl)-5-(2-methylindazol-5-yl)pyrimidin-4-yl]-2-fluorobenzonitrile]
IC50 (full-length human LSD1): < 100 nM
IC50 (THP-1 (AML) cells): < 100 nM

N#Cc1ccc(-c2nc(NC[C@H]3CCNC3)ncc2-c2ccc(Cl)cc2)cc1 [Example 19, 4-[5-(4-chlorophenyl)-2-{[(3S)-pyrrolidin-3-ylmethyl]amino}pyrimidin-4-yl]benzonitrile]
IC50 (full-length human LSD1): < 100 nM
IC50 (THP-1 (AML) cells): 100 to 1000 nM
